What was measured:
Type in all cases: cell-based
[1] = target: T1, PPARα (Mus musculus, UniProt P23204); assay: AOX target gene expression (qPCR) in FAO-PPARα cells at […]; conditions: fao-pparalpha cells, 0.1 µM
T1 construct: gene Ppara; FAO cells stably transfected with mouse PPARα
T1 sequence (P23204 1-468): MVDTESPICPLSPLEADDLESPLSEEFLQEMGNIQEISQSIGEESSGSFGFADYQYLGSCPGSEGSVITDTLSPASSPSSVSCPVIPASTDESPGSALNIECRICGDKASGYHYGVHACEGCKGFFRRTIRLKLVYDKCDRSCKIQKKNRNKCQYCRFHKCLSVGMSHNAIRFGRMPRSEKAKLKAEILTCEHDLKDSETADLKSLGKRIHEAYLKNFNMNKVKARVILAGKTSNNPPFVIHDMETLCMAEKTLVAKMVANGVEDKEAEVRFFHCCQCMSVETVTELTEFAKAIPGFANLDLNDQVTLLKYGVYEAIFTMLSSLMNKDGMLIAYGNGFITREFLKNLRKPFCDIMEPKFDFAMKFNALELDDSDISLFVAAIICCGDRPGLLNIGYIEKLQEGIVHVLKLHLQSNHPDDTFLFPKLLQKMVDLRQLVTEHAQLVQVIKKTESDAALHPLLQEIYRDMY

[2] = target: T2, PPARγ (Mus musculus, UniProt P37238); assay: FABP4 target gene expression (qPCR) in NIH 3T3 L1 cells at […]; conditions: NIH3T3, read-out: FABP4 target gene expression (qPCR) in NIH 3T3 L1 cells at 100 μM
T2 construct: gene Pparg
T2 sequence (P37238 1-505): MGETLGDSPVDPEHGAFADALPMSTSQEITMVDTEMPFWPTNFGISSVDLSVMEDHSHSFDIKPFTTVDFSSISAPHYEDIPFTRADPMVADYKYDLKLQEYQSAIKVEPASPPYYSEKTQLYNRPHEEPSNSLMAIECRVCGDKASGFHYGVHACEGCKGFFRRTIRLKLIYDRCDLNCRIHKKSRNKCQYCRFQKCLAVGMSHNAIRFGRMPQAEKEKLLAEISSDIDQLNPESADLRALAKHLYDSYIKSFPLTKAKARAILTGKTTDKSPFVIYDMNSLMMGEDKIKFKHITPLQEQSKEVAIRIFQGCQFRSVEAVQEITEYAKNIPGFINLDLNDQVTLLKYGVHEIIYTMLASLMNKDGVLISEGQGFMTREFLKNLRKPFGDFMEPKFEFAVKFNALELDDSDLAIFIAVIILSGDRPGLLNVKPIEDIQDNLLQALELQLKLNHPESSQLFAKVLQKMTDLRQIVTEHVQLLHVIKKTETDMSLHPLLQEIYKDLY

[3] = target: T1, PPARα; assay: AOX target gene expression (qPCR) in FAO-PPARα cells at […]; conditions: read-out: AOX target gene expression (qPCR) in FAO-PPARα cells at 100 μM
[4] = target: T2, PPARγ; assay: FABP4 target gene expression and lipid accumulation in NIH 3T3 L1 cells, with PPARγ shRNA knockdown
[5] = target: T1, PPARα; assay: AOX target gene expression (qPCR) in FAO-PPARα cells
[6] = target: T2, PPARγ; assay: FABP4 target gene expression (qPCR) in NIH 3T3 L1 cells at […]; conditions: NIH3T3, read-out: FABP4 target gene expression (qPCR) in NIH 3T3 L1 cells at 100 nM

CC(C)(Sc1ccc(CCN(CCCCC2CCCCC2)C(=O)NC2CCCCC2)cc1)C(=O)O [GW7647, 2-(4-(2-(1-(cyclohexanebutyl)-3-cyclohexylureido)ethyl)phenylthio)-2-methylpropionic acid]
AOX target gene expression (qPCR) in FAO-PPARα cells at 100 nM [1]: 4.9 ± 0.5 fold increase

CCCCC(CC)COC(=O)c1ccccc1C(=O)O (stereo not drawn) [MEHP]
fold induction at 100 µM [2]: 11.5 ± 2.7 | fold induction at 100 µM [3]: 5.4 ± 0.6

CCCCC(CC)COC(=O)c1c(Br)c(Br)c(Br)c(Br)c1C(=O)O (stereo not drawn) [TBMEHP]
FABP4 target gene expression and lipid accumulation in NIH 3T3 L1 cells, with PP [4]: TBMEHP-induced expression of the PPARγ target gene, FABP4, was significantly impaired in PPARγ-shRNA transduced cells | AOX target gene expression (qPCR) in FAO-PPARα cells [5]: TBMEHP, but not TBPH, significantly up-regulated the expression of both FABP4 and AOX mRNA

CN(CCOc1ccc(CC2SC(=O)NC2=O)cc1)c1ccccn1 (stereo not drawn) [rosiglitazone]
fold induction at 0.1 µM [6]: 6 ± 1.4

Reference: article PMC3548273, “Rodent Thyroid, Liver, and Fetal Testis Toxicity of the Monoester Metabolite of Bis-(2-ethylhexyl) Tetrabromophthalate (TBPH), a Novel Brominated Flame Retardant Present in Indoor Dust” (Environmental Health Perspectives, 2012)
